Measurements reported in patent US11311524B2, “Pharmaceutical composition used for treatment of HTLV-1-associated myelopathy” (DAIICHI SANKYO COMPANY, LIMITED, priority 2017, dated 2022).

How the values were obtained:
[1] = tested on: HCT-5 cells; experiment: Proliferation/viability of HTLV-1 infected cell line HCT-5 (CCK-8); assay type: cell-based, human; settings: for Viability of HTLV-1 infected cells vs DMSO group: HCT-5, 1 μM, up to 21 days culture; for GI50: Homo sapiens, 336 h, 14 days culture, CCK-8
Procedure: HCT-4 and HCT-5, which were HTLV-1 infected cell lines established from the cerebrospinal fluid of HAM patients, were donated from a professor, Tatsufumi Nakamura of the Nagasaki International University. HCT-4 was cultured in RPMI1640 culture medium containing 10% FBS (GIBCO), a 1% penicillin-streptomycin solution (Wako) and 100 U/mL IL-2 (Cell Science & Technology Institute, Inc.); whereas HCT-5 was cultured by using 10% FBS, 1% penicillin-streptomycin solution, 1% L-glutamine (SIGMA) and 200 U/mL IL-2. HCT-4 (3×10^6 cells) or HCT-5 (2.5×10^6 cells) were seeded in a culture medium (20 mL) in a 75 cm^2-culture flask. DMSO was added and compound A or B was added so as to provide a final concentration of 1 μM and culture was carried out at 37° C. in 5% CO2 conditions for 21 days while repeating subculture. In the subculture, a culture solution containing HCT-4 treated with DMSO so as to correspond to 3×10^6 cells, whereas a culture solution containing HCT-5 treated with DMSO so as to correspond to 2.5×10^6 cells were taken and each added to a new culture medium to obtain a final volume of 20 mL, and then, further compound A or B was added so as to obtain the same concentration as above. Day 7, 14 and 21 after initiation of culture, cells were recovered from the culture solution and the density of the cells was measured. In this manner, the effect of compound A or B on cell proliferation was examined. The density of cells was determined by seeding cultured cells in a 96-well plate in a volume of 100 μL per well, adding 10 μL of Cell counting kit-8 (CCK-8) (Dojindo Laboratories laboratory) per well, incubating the cells at 37° C. for 3 hours and measuring absorbance at 450 nm by a plate reader (iMark Microplate Reader, Biorad). The proliferation rates of cell groups treated with compound A or compound B were each calculated based on the cell group treated with DMSO as a control. Next, in a 6-well plate, HCT-4 (4.5×10^5 cells) or HCT-5 (3.75×10^5 cells) were seeded. A solution of compound A or B prepared with DMSO was serially diluted (4-fold dilution from 10000 nM was serially repeated 8 times) and added thereto. The cells were repeatedly subcultured at intervals of 3 to 4 days in a culture solution of 3 mL in total at 37° C. in 5% CO2 condition for 14 days. […] The cells cultured for 14 days in individual conditions were recovered and the density of the cells were measured. […] The density of cells was determined by seeding the cultured cells (100 μL) per well in a 96-well plate, adding 10 μL of CCK-8 per well, incubating the cells at 37° C. for 3 hours and measuring absorbance at 450 nm by a plate reader. The proliferation rate of a group treated with compound A or compound B was calculated based on the group treated with DMSO as a control.

[2] = tested on: HCT-4 cells; experiment: Apoptosis of HCT-4 cells (Annexin V-PE / 7-AAD, FACS); assay type: cell-based, human; settings: HCT-4, 1 μM, 21 days
Procedure: (§1) In this Example, experiments were carried out using the cells cultured for 21 days in Example 5. To detect apoptotic cells in the cells cultured for 21 days by adding 1 μM of compound A or compound B, the cells were stained by use of PE Annexin V apoptosis Detection Kit I (BD) and analyzed by FACS. In this analysis, the viable cells were detected based on FSC (forward scatter)-SSC (side scatter) plots. The viable cells were analyzed by Annexin V-PE (annexin V) and 7-AAD (7-amino actinomycin D). Early apoptotic cells were detected as Annexin V (+) 7-AAD (−) cells. The results were as shown in FIG. 8 (HCT-4 cells) and FIG. 9 (HCT-5 cells).

[3] = tested on: HCT-5 cells; experiment: Apoptosis of HCT-5 cells (Annexin V-PE / 7-AAD, FACS); assay type: cell-based, human; settings: HCT-5, 1 μM, 21 days
Procedure: as §1

[4] = target: EZH1 (Homo sapiens, UniProt Q92800); settings: from WO2015/141616; cited from earlier work
[5] = target: EZH2 (Homo sapiens, UniProt Q15910); settings: from WO2015/141616; cited from earlier work
Chain of EZH2 (Q15910 whole entry): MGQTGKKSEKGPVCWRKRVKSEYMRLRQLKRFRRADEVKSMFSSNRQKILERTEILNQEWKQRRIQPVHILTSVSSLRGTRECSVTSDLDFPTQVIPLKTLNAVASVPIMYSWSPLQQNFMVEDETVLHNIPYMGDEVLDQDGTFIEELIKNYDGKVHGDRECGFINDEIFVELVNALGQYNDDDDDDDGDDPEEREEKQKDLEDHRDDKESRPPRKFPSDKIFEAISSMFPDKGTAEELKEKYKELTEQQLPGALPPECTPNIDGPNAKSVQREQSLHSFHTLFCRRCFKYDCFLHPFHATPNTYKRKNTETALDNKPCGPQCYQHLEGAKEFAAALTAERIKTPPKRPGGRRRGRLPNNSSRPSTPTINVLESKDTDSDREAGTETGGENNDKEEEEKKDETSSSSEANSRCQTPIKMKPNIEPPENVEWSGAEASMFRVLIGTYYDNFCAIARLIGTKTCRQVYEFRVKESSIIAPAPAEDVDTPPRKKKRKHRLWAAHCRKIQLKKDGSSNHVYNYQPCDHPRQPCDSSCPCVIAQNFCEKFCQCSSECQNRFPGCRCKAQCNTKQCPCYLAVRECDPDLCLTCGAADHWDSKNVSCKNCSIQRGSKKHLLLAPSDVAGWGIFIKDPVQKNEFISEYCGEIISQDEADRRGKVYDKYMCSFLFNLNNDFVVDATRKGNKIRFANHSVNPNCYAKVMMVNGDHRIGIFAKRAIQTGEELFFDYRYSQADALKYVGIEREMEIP
Chain of EZH2 (O75530 whole entry partner): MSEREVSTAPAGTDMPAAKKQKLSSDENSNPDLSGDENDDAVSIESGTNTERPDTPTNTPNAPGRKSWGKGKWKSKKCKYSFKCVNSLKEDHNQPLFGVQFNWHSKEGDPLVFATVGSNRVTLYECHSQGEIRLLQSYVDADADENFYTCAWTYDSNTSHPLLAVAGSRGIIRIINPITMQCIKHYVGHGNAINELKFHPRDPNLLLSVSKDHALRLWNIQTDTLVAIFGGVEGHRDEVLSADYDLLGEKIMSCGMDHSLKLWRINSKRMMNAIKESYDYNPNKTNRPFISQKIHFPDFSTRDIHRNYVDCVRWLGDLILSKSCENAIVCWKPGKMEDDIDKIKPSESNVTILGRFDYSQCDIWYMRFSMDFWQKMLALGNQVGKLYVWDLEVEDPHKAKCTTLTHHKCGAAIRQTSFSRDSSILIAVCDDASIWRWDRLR
Chain of EZH2 (Q15022 whole entry partner): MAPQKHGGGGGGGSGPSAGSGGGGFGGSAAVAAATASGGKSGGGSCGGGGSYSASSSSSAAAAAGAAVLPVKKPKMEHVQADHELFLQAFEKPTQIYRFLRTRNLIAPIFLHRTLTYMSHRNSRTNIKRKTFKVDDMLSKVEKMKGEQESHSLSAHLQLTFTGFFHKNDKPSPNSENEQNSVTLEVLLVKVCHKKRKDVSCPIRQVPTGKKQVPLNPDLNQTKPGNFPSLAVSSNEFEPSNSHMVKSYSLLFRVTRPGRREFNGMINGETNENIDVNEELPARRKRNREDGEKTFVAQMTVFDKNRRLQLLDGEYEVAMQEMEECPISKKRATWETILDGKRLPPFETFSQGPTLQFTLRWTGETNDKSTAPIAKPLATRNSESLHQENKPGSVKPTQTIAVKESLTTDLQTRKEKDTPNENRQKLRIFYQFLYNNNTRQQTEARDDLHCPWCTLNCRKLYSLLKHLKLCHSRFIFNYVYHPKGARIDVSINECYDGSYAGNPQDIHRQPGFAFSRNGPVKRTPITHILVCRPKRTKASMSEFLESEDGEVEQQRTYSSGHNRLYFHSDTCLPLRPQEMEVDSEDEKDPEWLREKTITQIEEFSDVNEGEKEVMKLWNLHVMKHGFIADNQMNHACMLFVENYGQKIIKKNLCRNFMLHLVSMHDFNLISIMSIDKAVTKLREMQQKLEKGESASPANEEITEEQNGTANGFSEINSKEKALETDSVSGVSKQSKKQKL
Chain of EZH2 (Q09028 whole entry partner): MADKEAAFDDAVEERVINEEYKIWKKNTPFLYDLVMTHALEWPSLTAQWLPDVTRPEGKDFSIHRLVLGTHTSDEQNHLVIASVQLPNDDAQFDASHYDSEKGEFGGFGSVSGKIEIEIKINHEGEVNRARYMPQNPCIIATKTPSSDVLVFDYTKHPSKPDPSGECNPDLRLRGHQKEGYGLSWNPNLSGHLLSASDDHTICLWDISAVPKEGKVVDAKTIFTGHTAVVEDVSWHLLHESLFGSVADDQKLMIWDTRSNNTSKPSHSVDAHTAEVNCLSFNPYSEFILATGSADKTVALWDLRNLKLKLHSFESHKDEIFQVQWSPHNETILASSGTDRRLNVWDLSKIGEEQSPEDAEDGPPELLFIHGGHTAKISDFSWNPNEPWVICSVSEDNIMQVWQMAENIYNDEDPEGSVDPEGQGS

Chain of EZH1 (Q92800 whole entry): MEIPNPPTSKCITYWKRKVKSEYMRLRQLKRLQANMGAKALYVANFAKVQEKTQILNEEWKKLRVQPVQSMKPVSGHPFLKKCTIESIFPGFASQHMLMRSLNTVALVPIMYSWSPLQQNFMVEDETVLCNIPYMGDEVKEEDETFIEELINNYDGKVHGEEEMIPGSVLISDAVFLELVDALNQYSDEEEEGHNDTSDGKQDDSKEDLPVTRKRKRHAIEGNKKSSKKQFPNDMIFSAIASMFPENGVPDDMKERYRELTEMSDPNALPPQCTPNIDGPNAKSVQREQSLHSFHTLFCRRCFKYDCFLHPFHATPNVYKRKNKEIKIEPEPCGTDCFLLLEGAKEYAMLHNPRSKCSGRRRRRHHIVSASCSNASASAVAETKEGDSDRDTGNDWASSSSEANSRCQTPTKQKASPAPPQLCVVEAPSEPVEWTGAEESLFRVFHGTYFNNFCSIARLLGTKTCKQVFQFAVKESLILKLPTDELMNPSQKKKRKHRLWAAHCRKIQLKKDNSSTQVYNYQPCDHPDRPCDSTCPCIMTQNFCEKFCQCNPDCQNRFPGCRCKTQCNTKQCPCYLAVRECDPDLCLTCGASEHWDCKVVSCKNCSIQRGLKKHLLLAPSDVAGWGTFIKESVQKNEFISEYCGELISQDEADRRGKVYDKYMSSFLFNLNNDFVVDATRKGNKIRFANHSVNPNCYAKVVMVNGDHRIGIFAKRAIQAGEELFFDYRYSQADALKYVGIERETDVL
Chain of EZH1 (O75530 whole entry partner): as the sequence (O75530 whole entry partner) above
Chain of EZH1 (Q15022 whole entry partner): as the sequence (Q15022 whole entry partner) above
Chain of EZH1 (Q09028 whole entry partner): as the sequence (Q09028 whole entry partner) above

Row | Structure (SMILES) | Viability of HTLV-1 infected cells vs DMSO group [1] | GI50 [1] [nM] | Number of early apoptotic cells (Annexin V (+) 7-AAD (−)) [2] | Number of viable cells (FSC-SSC) [2] | Number of early apoptotic cells (Annexin V (+) 7-AAD (−)) [3] | Number of viable cells (FSC-SSC) [3] | Inhibition of enzyme activity of EZH1 [4] | Inhibition of enzyme activity of EZH2 [5]
1 | Cc1cc(C)c(CNC(=O)c2cc(Cl)c3c(c2C)O[C@@](C)([C@H]2CC[C@H](N(C)C)CC2)O3)c(=O)[nH]1 [compound B, (2R)-7-chloro-2-[trans-4-(dimethylamino)cyclohexyl]-N-[(4,6-dimethyl-2-oxo-1,2-dihydropyridin-3-yl)methyl]-2,4-dimethyl-1,3-benzodioxole-5-carboxamide] | significantly reduce the viability | 90.6 | the number of early apoptotic cells increased | the number of viable cells decreases | the number of early apoptotic cells increased | the number of viable cells decreases | inhibit | inhibit
2 | Cc1cc(C)c(CNC(=O)c2cc(Br)c3c(c2C)O[C@@](C)([C@H]2CC[C@H](N(C)C)CC2)O3)c(=O)[nH]1 [compound A, (2R)-7-bromo-2-[trans-4-(dimethylamino)cyclohexyl]-N-[(4,6-dimethyl-2-oxo-1,2-dihydropyridin-3-yl)methyl]-2,4-dimethyl-1,3-benzodioxole-5-carboxamide] | significantly reduce the viability | 185 | the number of early apoptotic cells increased | the number of viable cells decreases | the number of early apoptotic cells increased | the number of viable cells decreases | inhibit | inhibit
